Residues, ends and D or L forms follow the SMILES beside them.
First: CC(=O)NC(Cc1ccccc1)C(=O)NC(Cc1ccccc1)C(=O)NC(Cc1c[nH]cn1)C(=O)O (stereo not drawn) (Ac-Phe-Phe-His-OH; configuration not given here)
Second: CN(Cc1ccccc1)c1ccccc1C(=O)O
The melting point of the first is higher: 143 to 145 °C for the first, 86 to 88 °C for the second.

First: CCOC(=O)Nc1ccc2nc3ccccc3c(-c3cc(C)ccc3C)c2c1
Second: Cc1ccc(C(=O)NCC(N)=O)cc1-c1cccc2cc(Cc3cccc(C(F)(F)F)c3)sc12
The melting point of the first is higher: 200 to 202 °C for the first, 165 to 166 °C for the second.

First: COC(=O)C(C)Oc1ccc(N(C)c2nc3cc(Cl)ccc3s2)cc1 (configuration not stated)
Second: COc1ccc(CN(C(=O)C2CCOc3c(O)cccc32)c2ccc(C(C)C)cc2)cn1 (configuration not stated)
The melting point of the first is lower: 120 °C for the first, 141 °C for the second.

Compared with `CS[C@H]([C@@H](C)C(=O)O)[C@@H]1CCCN1C(=O)OC(C)(C)C`, `CC(CCCC1(C(=O)NCC(F)(F)F)c2ccccc2-c2ccccc21)N1CCC(NC(=O)OC(C)(C)C)CC1` (configuration not stated) is lower in melting point: 141 to 142 °C for the first, 58 to 60 °C for the second.

First: N#Cc1ccccc1Cc1c(-c2ccc(OC(F)F)c(OC3CC3)c2)[nH]c2cn[nH]c(=O)c12
Second: COc1cc(CC(=O)O)ccc1OCCc1ccccc1
The melting point of the first is higher: greater than 300 °C for the first, 97 to 100 °C for the second.

Compared with `CCCc1c(CSc2nnc(SCCCS(=O)(=O)CC(=O)O)s2)ccc(C(C)=O)c1O`, `COC(=O)c1cc(S(=O)(=O)NC(=O)Nc2nc(C)cc(C)n2)c[nH]1` is higher in melting point: 122 to 125 °C for the first, 202 to 204 °C for the second.

First: Clc1ccc(-c2onc3c(CBr)cccc23)c(Cl)c1
Second: O=S(=O)(Nc1cc(Cl)c(Oc2nc3ccc(Cl)cc3s2)c(Cl)c1)c1ccc(C(F)(F)F)cc1Cl
The melting point of the first is higher: 108 to 110 °C for the first, 82 to 84 °C for the second.

First: COc1ccc2ncc(Cl)c(OC[C@@H]3CC[C@@H](NC(=O)OC(C)(C)C)CO3)c2c1
Second: CC(=O)Oc1cc2c(cc1C(C)(C)C)OC(C)(COc1ccc([N+](=O)[O-])cc1)CC2=O (configuration not stated)
The melting point of the first is higher: 173 °C for the first, 82 to 84 °C for the second.

First: O=C1CCC(n2cnc3ccc(Cl)cc3c2=O)C(=O)N1 (configuration not stated)
Second: Nc1ncc(Oc2ccc(Cl)cc2)c(N2CCN(C=O)CC2)n1
The melting point of the first is higher: 302 to 305 °C for the first, 159 to 161 °C for the second.

First: COc1cc2c3c(Br)cc(OC)c(OC)c3n(S(C)(=O)=O)c2cc1OC
Second: COc1cc(Cl)cc(Cl)c1C(=O)NC(C)(C)CO
The melting point of the first is higher: 178 to 179 °C for the first, 131 to 132 °C for the second.

First: COC(=O)CCCCCCCCOC1OC(CO)C(O)C(O)C1O (configuration not stated)
Second: OC1CSC(Oc2cccc(-c3cncc(F)c3)c2)C(O)C1O (configuration not stated)
The melting point of the first is lower: 104 to 105 °C for the first, 211 to 212 °C for the second.

First: CCn1c(-c2ccccc2)c(C2=CCC(C(=O)O)(C(=O)O)CC2)c2ccccc21
Second: O=C(Cc1ccccc1[N+](=O)[O-])CN1C(=O)c2ccccc2C1=O
The melting point of the first is lower: 111 to 112 °C for the first, 179 to 182 °C for the second.

Compared with `Nc1nc2c(ncn2CCC(COCc2ccccc2)COCc2ccccc2)c(=O)[nH]1`, `CS(=O)(=O)c1nc2cnc3cccnc3c2n1Cc1ccccc1` is lower in melting point: 210 to 224 °C for the first, 187 to 191 °C for the second.

First: Cc1ccc(S(=O)(=O)N2Cc3csc(C)c3C2)cc1
Second: CN1C(=O)N(c2c(Cl)cccc2Cl)Cc2cnc(Nc3ccc(CCO)cc3)nc21
The melting point of the first is higher: 158 to 160 °C for the first, 148 to 151 °C for the second.

Compared with `O=C(O)CCN=c1sc2ccccc2s1`, `O=C(O)c1cc(C(F)(F)F)ccc1Cl` is lower in melting point: 203 to 204 °C for the first, 93 to 94 °C for the second.

First: CC(C)(C)c1ccc2c(c1)C(CO)c1cc(C(C)(C)C)ccc1S2
Second: COc1cccc(C(=O)NCCc2ccc(-c3ccc(OC(C)(C)C(=O)O)cc3)cc2)c1
The melting point of the first is higher: 158 to 159 °C for the first, 117 °C for the second.

First: COc1cc2ccccc2cc1N(C)C(=O)N1CCN(c2cc(F)cc(F)c2)CC1
Second: C=CCN(C(C)=O)c1cccc(-c2ccnc3c(C#N)cnn23)c1
The melting point of the first is lower: 115 to 117 °C for the first, 135 to 137 °C for the second.

First: CC(=O)SC[C@@H](C(=O)N[C@H](CC(C)C)c1nnn[nH]1)C(F)(F)F
Second: CC(=O)OCCOc1ccc2oc3cc(-c4nnn[nH]4)ccc3c(=O)c2c1
The melting point of the first is lower: 180 to 184 °C for the first, 216 to 218 °C for the second.

Molecule `O=Cc1ccc2c(c1)C1(c3ccccc3-2)c2ccccc2-c2ccc(CO)cc21` (configuration not stated) has a melting point of 262 to 263 °C.

Reference: a melting point compilation (Tetko et al.; mined from patent text by program, amines drawn as free bases though some values may be those of a salt)
